Laboratory results from ChEMBL document CHEMBL1130777, “L-374,087, an efficacious, orally bioavailable, pyridinone acetamide thrombin inhibitor” (Bioorg Med Chem Lett, 1998).

Experiments:
[1] = biological target: Prothrombin (Homo sapiens, UniProt P00734); experiment: Binding affinity towards thrombin was evaluated
[2] = biological target: Serine protease 1 (Homo sapiens, UniProt P07477); experiment: Binding affinity towards trypsin was evaluated
[3] = Compound was evaluated for the half life period after iv administration in cynomolgus monkey; assay type: ADME, organism-based; details: cercopithecidae, in vivo
[4] = Oral bioavailability after 5 mg/kg in cynomolgus monkey was determined; assay type: ADME, organism-based; details: cercopithecidae, in vivo, read-out: Bioavailabiility
[5] = Compound was evaluated for the oral bioavailability after oral administration in dog.; assay type: ADME, organism-based, Canis lupus familiaris; details: in vivo, read-out: Bioavailabiility
[6] = Maximum concentration was evaluated after 75 min after administration in dog; assay type: ADME, organism-based, Canis lupus familiaris; details: in vivo
[7] = Compound was evaluated for the half life period after iv administration in Beagle dog.; assay type: ADME, organism-based, Canis lupus familiaris; details: in vivo
[8] = test system: Rattus norvegicus; experiment: Incidence of occlusion was determined in the rat ferric chloride arterial thrombosis model at 10 dose ug/kg/min after intravenous administration; 0/9; assay type: functional
[9] = test system: Rattus norvegicus; experiment: Incidence of occlusion was determined in the rat ferric chloride arterial thrombosis model at 3 dose ug/kg/min after intravenous administration; 2/6; assay type: functional
[10] = test system: Rattus norvegicus; experiment: Incidence of occlusion was determined in the rat ferric chloride arterial thrombosis model at 5 dose ug/kg/min after intravenous administration; 1/6; assay type: functional
[11] = test system: Rattus norvegicus; experiment: Incidence of occlusion was determined in the rat ferric chloride arterial thrombosis model at 1 dose ug/kg/min after intravenous administration; 5/6; assay type: functional

Sequence of Serine protease 1 (P07477 whole entry): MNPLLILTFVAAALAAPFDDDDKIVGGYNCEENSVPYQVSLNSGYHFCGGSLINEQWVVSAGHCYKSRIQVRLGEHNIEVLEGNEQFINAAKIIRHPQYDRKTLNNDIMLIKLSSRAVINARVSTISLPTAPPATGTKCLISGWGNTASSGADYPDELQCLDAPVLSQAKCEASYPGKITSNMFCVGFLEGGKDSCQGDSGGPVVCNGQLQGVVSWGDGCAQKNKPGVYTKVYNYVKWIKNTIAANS

Structure (SMILES)	Ki [1] [nM]	Ki [2] [nM]	other results
Cc1nc(N)ccc1CNC(=O)Cn1c(C)ccc(NCCc2ccccc2)c1=O	2.3	4300	
Cc1ccc(NS(=O)(=O)Cc2ccccc2)c(=O)n1CC(=O)NCc1ccc(N)nc1	11	3000	
Cc1nc(N)ccc1CNC(=O)Cn1c(C)ccc(NS(=O)(=O)Cc2ccccc2)c1=O.Cl			half-life [3]: 2.42 h; bioavailability [4]: 19%; bioavailability [5]: 44%; Cmax [6]: 990 nM; half-life [7]: 1.5 h
Cc1nc(N)ccc1CNC(=O)Cn1c(C)ccc(NS(=O)(=O)Cc2ccccc2)c1=O [L-374087]			Incidence of occlusion [8]: 0; Incidence of occlusion [9]: 2; Incidence of occlusion [10]: 1; Incidence of occlusion [11]: 5

Second part, led by results:

Ki [1] [nM]	Ki [2] [nM]	Structure (SMILES)	other results
0.33	2100	Cc1cc(N)nc(C)c1CNC(=O)Cn1c(C)ccc(NS(=O)(=O)Cc2ccccc2)c1=O	
12	1500	Cc1cc(N)ncc1CNC(=O)Cn1c(C)ccc(NS(=O)(=O)Cc2ccccc2)c1=O	
26	20000	Cc1nc(N)ccc1CNC(=O)Cn1cccc(NS(=O)(=O)Cc2ccccc2)c1=O	
